This assay deals with Escherichia coli. In words: Antimicrobial activity against Escherichia coli at 100 ug/disk by standard disk assay. The assay is classed as functional, organism-based.

The structures appear in SMILES notation. Activity calls are given as the source filed them. No cut-off for these calls is given here.

As to `CC1(C)C[C@@H]2C3=C[C@@H](O)C[C@](C)(CC[C@@H]21)C3`, the result was Active.

The values are drawn from ChEMBL document CHEMBL1150188, “Chemistry of Sponges, X. New Sesquiterpenes from a Marine Sponge of the Genus Eurypon” (J Nat Prod, 1990).
